Laboratory results reported in patent US5212165A, “Method for rehabilitating the vasorelaxant action of the coronary arteries impaired through atherosclerosis or hypercholesterolemia employing an ACE inhibitor” (E. R. Squibb & Sons, Inc., priority 1989, dated 1993).
Entries after “also recorded” stand apart in the source; their conditions may differ.

Experiments:
rat aortic rings = conditions: Hartich et al, Shultz et al, cited from earlier work
[1] = test system: phenylephrine-contracted isolated iliac arteries; experiment: Acetylcholine-induced relaxation of phenylephrine-contracted isolated iliac arteries from cynomolgus monkeys; set-up: species or system cynomolgus (Macaca fascicularis) monkeys; conditions: for maximum force generated in response to phenylephrine (before acetylcholine): mean±SEM
Source text: Twenty-four male cynomolgus (Macaca fascicularis) monkeys were divided into four groups of six animals each. During the course of the study, one of the control monkeys was sacrificed due to ill health unrelated to the study. Each group was fed a different diet for six months. The control group ate a normal diet of monkey biscuit. The cholesterol group ate a specially formulated monkey diet containing cholesterol. The cholesterol +low captopril group ate the cholesterol diet supplemented with captopril (50 mg/kg divided into two daily doses). The cholesterol+high captopril group ate the cholesterol diet and a higher total dose of captopril (100 mg/kg divided into two daily doses).
The monkeys were sedated with an intramuscular injection of ketamine (10 mg/kg), then anesthetized with pentobarbital (25 mg/kg). The iliac arteries were carefully dissected, cleaned of surrounding connective tissue, and refrigerated overnight for use the following day.
On the day of the experiment, three iliac rings (3 mm wide) from each animal were cut and mounted for isometric force recording. Each ring was attached to a micrometer for the control of muscle length and to a Grass FT.03 force transducer and Grass 7D recorder. The rings were placed in warm (37° C.), oxygenated, physiological salt solution (PSS) of the following composition (in mM): 140.0 NaCl, 4.7 KCl, 1.2 MgSO4, 1.6 CaCl2, 1.2 NaH2 PO4, 5.6 D-glucose, 2.0 2-(N-morpholino)propanesulfonic acid (MOPS, pH 7.4 at 37° C.), and 0.02 Na2 -ethylenediaminetetraacetic acid (EDTA). The rings were stretched to a preload of 5 g during a 2 hour equilibration period, then stimulated with 1 μM phenylephrine to test for viability and relaxed with 100 nM acetylcholine to test for endothelial function. Stock solutions of phenylphrine, acetylcholine, propranolol, and sodium nitroprusside were prepared daily in water; nifedipine stock solutions were prepared daily in ethanol.
Alpha-adrenoceptor and endothelial cell function were examined in the third ring from each monkey. In the presence of 0.1 μM propranolol, a cumulative concentration-response curve to phenylephrine was obtained, then the phenylephrine was washed out of the baths and the rings were allowed to relax completely. The rings were subsequently contracted with an EC50 concentration of phenylephrine (1 μM) and, following stabilization of the contraction, the rings were treated with increasing concentrations of acetylcholine, followed by 100 nM sodium nitroprusside.
Data are presented as mean±SEM. The IC50 and EC50 values were estimated by linearly interpolating from the concentration-response curves. The EC50 values for each ring were used to determine the means for each treatment group.
For each monkey, the EC50 for acetylcholine relaxation was calculated by linearly interpolating from the concentration-response curves. When 50% relaxation was not achieved, the value of the EC50 was set to 30 μM a value larger than any of the experimental concentrations of acetylcholine).
Linear contrast of mean ranks in the groups were constructed with a variance estimate for the contrast based on the Kruskal-Wallis statistic (Dunn 1964).
In the analyses, the following coefficients were employed: i) for an overall test, the coefficients were 3 for the cholesterol group, 1 for the control group, -1 for the cholesterol+low captopril group, and -3 for the cholesterol+high captopril group, based on prior expectations of likely results; ii) for a test of the cholesterol effect, the coefficients were 1 for the cholesterol group, -1 for the control group, 0 for the cholestrol+low captopril group, and 0 for the cholesterol+high captopril group; iii) for a test of the captopril effect, the coefficients were 0 for the cholesterol group, 1 for the […], 0 for the cholesterol+low captopril group, and -1 for the cholesterol+high captopril group.
All statistical results reported are based on one-sided tests. […]

Structure (SMILES): C[C@H](CS)C(=O)N1CCC[C@H]1C(=O)O [captopril, 1-[(2S)-3-mercapto-2-methylpropionyl]-L-proline]
- endothelium dependent relaxation of normal rat aortic rings (rat aortic rings; in vitro): enhance endothelium dependent relaxation
- effect of acetylcholine in rat aortic rings after captopril feeding alone (rat aortic rings; without cholesterol): potentiate the effects of acetylcholine
- EC50 at 100 mg/kg ([1]; Macaca fascicularis, Cholesterol + High Captopril (100 mg/kg daily, six months), N 5, non-responder excluded, Mean ± SEM): 100 ± 10 nM
- endothelium-dependent vasorelaxant effects ([1]; arteries from hypercholesterolemic and atherosclerotic monkeys): enhance endothelium-dependent vasorelaxant effects
- shift of EC50 concentration for acetylcholine ([1]; captopril as compared with cholesterol alone): statistically significant effect of captopril as compared with cholesterol; also recorded: significantly shifted the EC50 concentration for acetylcholine to the left
- rings not showing 50% relaxation in response to acetylcholine ([1]; cholesterol diet and low dose captopril): One ring did not show 50% relaxation
- iliac rings responsive to acetylcholine ([1]; cholesterol fed, high daily dose of captopril, six animals): Five of the iliac rings
- maximum force generated in response to phenylephrine (before acetylcholine) ([1]; cholesterol+high captopril group, non-responders excluded): 11.9 ± 2.1 g
- maximum force generated in response to phenylephrine (before acetylcholine) ([1]; cholesterol+low captopril group): 12.4 ± 2.2 g
- potency and efficacy of acetylcholine in iliac rings from cholesterol-fed monkeys which received captopril ([1]; vs cholesterol diet without captopril): significantly more potent and efficacious
